Test results from ChEMBL document CHEMBL1201862, “PubChem BioAssay data set” (2004).
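Assay format: 96-well plates, 48-hour exposure. At the GI50, growth is halved.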 Active and inactive are the calls of the source. Cut-off read from the data, not from the text of the source: active = GI50 up to about 1.1 µM and inactive = higher.

Key:
Assay in all cases: NCI-60 cell line screen, 48 h
NCI-H226 = system: NCI-H226
UACC-257 = system: UACC-257
UO-31 = system: UO-31
HOP-62 = system: HOP-62
HCT-15 = system: HCT-15
U-251 = system: U-251
HOP-92 = system: HOP-92
SF-268 = system: SF-268
Malme-3M = system: Malme-3M
OVCAR-3 = system: OVCAR-3
SW-620 = system: SW-620
K562 = system: K562
HT-29 = system: HT-29
EKVX = system: EKVX
SK-MEL-2 = system: SK-MEL-2
SK-MEL-5 = system: SK-MEL-5
SK-MEL-28 = system: SK-MEL-28
A549 = system: A549

Cc1ccc(CCCC(=O)O)cc1C
GI50 (NCI-H226): > 100 µM (inactive)
GI50 (UACC-257): > 100 µM (inactive)
GI50 (UO-31): > 100 µM (inactive)
GI50 (HOP-62): > 100 µM (inactive)
GI50 (HCT-15): > 100 µM
GI50 (U-251): > 100 µM (inactive)
GI50 (HOP-92): > 100 µM (inactive)
GI50 (SF-268): 63.7 µM (inactive)
GI50 (Malme-3M): > 100 µM (inactive)
GI50 (OVCAR-3): > 100 µM (inactive)
GI50 (SW-620): > 100 µM (inactive)
GI50 (K562): > 100 µM (inactive)
GI50 (HT-29): > 100 µM (inactive)
GI50 (EKVX): > 100 µM (inactive)
GI50 (SK-MEL-2): > 100 µM (inactive)
GI50 (SK-MEL-5): > 100 µM (inactive)
GI50 (SK-MEL-28): > 100 µM (inactive)
GI50 (A549): > 100 µM (inactive)

O=C1NC(=O)C2C(=O)NC(=O)C1C2c1c(Cl)cccc1Cl (centres undefined)
GI50 (NCI-H226): > 100 µM (inactive)
GI50 (UACC-257): > 67.9 µM (inactive)
GI50 (UO-31): > 100 µM (inactive)
GI50 (HOP-62): > 100 µM (inactive)
GI50 (HCT-15): > 100 µM
GI50 (U-251): > 66.1 µM (inactive)
GI50 (HOP-92): > 100 µM (inactive)
GI50 (SF-268): > 51.1 µM (inactive)
GI50 (Malme-3M): > 100 µM (inactive)
GI50 (OVCAR-3): > 100 µM (inactive)
GI50 (SW-620): > 31.3 µM (inactive)
GI50 (K562): > 49.4 µM (inactive)
GI50 (HT-29): > 92.5 µM (inactive)
GI50 (EKVX): > 100 µM (inactive)
GI50 (SK-MEL-2): > 100 µM (inactive)
GI50 (SK-MEL-5): > 100 µM (inactive)
GI50 (SK-MEL-28): > 100 µM (inactive)
GI50 (A549): > 72.4 µM (inactive)

CCC(=O)C(C)C1=Nc2nnc(CCCCCCCc3nnc4n3C(=O)C(C(C)C(=O)CC)=N4)n2C1=O (centres undefined)
GI50 (NCI-H226): > 100 µM (inactive)
GI50 (UACC-257): > 100 µM (inactive)
GI50 (UO-31): > 100 µM (inactive)
GI50 (HOP-62): > 100 µM (inactive)
GI50 (HCT-15): > 100 µM
GI50 (U-251): > 100 µM (inactive)
GI50 (HOP-92): > 100 µM (inactive)
GI50 (SF-268): > 100 µM (inactive)
GI50 (Malme-3M): > 100 µM (inactive)
GI50 (OVCAR-3): > 100 µM (inactive)
GI50 (SW-620): > 100 µM (inactive)
GI50 (K562): > 100 µM (inactive)
GI50 (HT-29): > 100 µM (inactive)
GI50 (EKVX): > 100 µM (inactive)
GI50 (SK-MEL-5): > 100 µM (inactive)
GI50 (SK-MEL-28): > 100 µM (inactive)
GI50 (A549): > 100 µM (inactive)

COC1(OC)CC2C(=O)N(Cc3ccccc3)C1C(S(=O)(=O)c1ccccc1)C2S(=O)(=O)c1ccccc1 (centres undefined)
GI50 (NCI-H226): 19.7 µM (inactive)
GI50 (UACC-257): 7.38 µM (inactive)
GI50 (UO-31): 17.4 µM (inactive)
GI50 (HOP-62): > 100 µM (inactive)
GI50 (HCT-15): 3.62 µM
GI50 (U-251): 13.6 µM (inactive)
GI50 (HOP-92): 19.3 µM (inactive)
GI50 (SF-268): 14.1 µM (inactive)
GI50 (Malme-3M): 15.6 µM (inactive)
GI50 (OVCAR-3): 10.9 µM (inactive)
GI50 (SW-620): 2.13 µM (inactive)
GI50 (K562): 7.48 µM (inactive)
GI50 (HT-29): 11.6 µM (inactive)
GI50 (SK-MEL-5): 18.4 µM (inactive)
GI50 (SK-MEL-28): 13.7 µM (inactive)
GI50 (A549): 29.6 µM (inactive)

NC1=C(O)c2cccc3cccc(c23)C1=O
GI50 (NCI-H226): 35.9 µM (inactive)
GI50 (UACC-257): > 100 µM (inactive)
GI50 (UO-31): 51.6 µM (inactive)
GI50 (HCT-15): > 100 µM
GI50 (U-251): > 100 µM (inactive)
GI50 (HOP-92): > 100 µM (inactive)
GI50 (SF-268): > 100 µM (inactive)
GI50 (Malme-3M): > 100 µM (inactive)
GI50 (OVCAR-3): > 100 µM (inactive)
GI50 (SW-620): > 100 µM (inactive)
GI50 (K562): > 100 µM (inactive)
GI50 (HT-29): > 100 µM (inactive)
GI50 (EKVX): > 100 µM (inactive)
GI50 (SK-MEL-2): > 100 µM (inactive)
GI50 (SK-MEL-5): > 100 µM (inactive)
GI50 (SK-MEL-28): > 100 µM (inactive)
GI50 (A549): > 100 µM (inactive)

CC(=O)NNc1nc(C)c(C(=O)NNC(=O)C(=O)Nc2ccc(Cl)cc2Cl)s1
GI50 (NCI-H226): 34.2 µM (inactive)
GI50 (UACC-257): 31 µM (inactive)
GI50 (UO-31): 28.2 µM (inactive)
GI50 (HOP-62): 38.5 µM (inactive)
GI50 (HCT-15): 38.5 µM
GI50 (U-251): 31.1 µM (inactive)
GI50 (HOP-92): 25.9 µM (inactive)
GI50 (SF-268): 27.4 µM (inactive)
GI50 (Malme-3M): 57 µM (inactive)
GI50 (OVCAR-3): 19.6 µM (inactive)
GI50 (SW-620): 22.2 µM (inactive)
GI50 (K562): 21 µM (inactive)
GI50 (HT-29): 48.5 µM (inactive)
GI50 (EKVX): 40.1 µM (inactive)
GI50 (SK-MEL-2): 44.1 µM (inactive)
GI50 (SK-MEL-5): 30.5 µM (inactive)
GI50 (SK-MEL-28): 39.9 µM (inactive)
GI50 (A549): 35.9 µM (inactive)

O=C(Nc1ccccc1)Oc1ccccc1C1CCCCC1
GI50 (NCI-H226): 13.2 µM (inactive)
GI50 (UACC-257): 16.9 µM (inactive)
GI50 (UO-31): 13.1 µM (inactive)
GI50 (HOP-62): 18.1 µM (inactive)
GI50 (HCT-15): 16.6 µM
GI50 (U-251): 12 µM (inactive)
GI50 (HOP-92): 10.4 µM (inactive)
GI50 (SF-268): 36.3 µM (inactive)
GI50 (Malme-3M): 21.1 µM (inactive)
GI50 (OVCAR-3): 12.7 µM (inactive)
GI50 (SW-620): 25.5 µM (inactive)
GI50 (K562): 17.9 µM (inactive)
GI50 (HT-29): 20.4 µM (inactive)
GI50 (EKVX): 20.1 µM (inactive)
GI50 (SK-MEL-5): 13.5 µM (inactive)
GI50 (SK-MEL-28): 29.6 µM (inactive)
GI50 (A549): 20.9 µM (inactive)

Cc1c(C(=O)C/C(=N/NC(=O)c2ccccc2O)C(=O)Nc2ccccc2C(C)C)[n+]([O-])c2ccccc2[n+]1[O-]
GI50 (NCI-H226): > 100 µM (inactive)
GI50 (UACC-257): 28.1 µM (inactive)
GI50 (HOP-62): > 100 µM (inactive)
GI50 (HCT-15): 30.3 µM
GI50 (U-251): 45 µM (inactive)
GI50 (SF-268): 33.9 µM (inactive)
GI50 (Malme-3M): 48.6 µM (inactive)
GI50 (OVCAR-3): 25.8 µM (inactive)
GI50 (SW-620): 35.4 µM (inactive)
GI50 (K562): 33.7 µM (inactive)
GI50 (HT-29): 43.6 µM (inactive)
GI50 (EKVX): 47.4 µM (inactive)
GI50 (SK-MEL-2): 0.0522 µM (active)
GI50 (SK-MEL-5): 43 µM (inactive)
GI50 (SK-MEL-28): 69.7 µM (inactive)
GI50 (A549): 34.7 µM (inactive)

Cc1c2ccnc(O)c2cc2c(=O)c3cnccc3[nH]c12
GI50 (NCI-H226): > 100 µM (inactive)
GI50 (UACC-257): > 100 µM (inactive)
GI50 (UO-31): > 100 µM (inactive)
GI50 (HOP-62): > 100 µM (inactive)
GI50 (HCT-15): > 100 µM
GI50 (U-251): > 100 µM (inactive)
GI50 (HOP-92): > 100 µM (inactive)
GI50 (SF-268): > 100 µM (inactive)
GI50 (Malme-3M): > 100 µM (inactive)
GI50 (OVCAR-3): > 100 µM (inactive)
GI50 (SW-620): > 100 µM (inactive)
GI50 (K562): > 100 µM (inactive)
GI50 (HT-29): > 100 µM (inactive)
GI50 (EKVX): > 100 µM (inactive)
GI50 (SK-MEL-2): > 100 µM (inactive)
GI50 (SK-MEL-5): > 100 µM (inactive)
GI50 (SK-MEL-28): > 100 µM (inactive)
GI50 (A549): > 100 µM (inactive)

CCC1CNC(=O)CC1CC(=O)OC (centres undefined)
GI50 (NCI-H226): > 100 µM (inactive)
GI50 (UO-31): > 100 µM (inactive)
GI50 (HOP-62): > 100 µM (inactive)
GI50 (HCT-15): > 100 µM
GI50 (U-251): > 100 µM (inactive)
GI50 (HOP-92): > 100 µM (inactive)
GI50 (SF-268): > 100 µM (inactive)
GI50 (Malme-3M): > 100 µM (inactive)
GI50 (OVCAR-3): > 100 µM (inactive)
GI50 (SW-620): > 100 µM (inactive)
GI50 (K562): > 100 µM (inactive)
GI50 (EKVX): > 100 µM (inactive)
GI50 (SK-MEL-2): > 100 µM (inactive)
GI50 (SK-MEL-5): > 100 µM (inactive)
GI50 (SK-MEL-28): > 100 µM (inactive)
GI50 (A549): > 100 µM (inactive)

Cc1c(/C=C2\CC/C(=C\c3[nH]c(C(=O)OC(C)(C)C)c(C)c3C)C2=O)[nH]c(C(=O)OC(C)(C)C)c1C
GI50 (NCI-H226): > 100 µM (inactive)
GI50 (UACC-257): > 100 µM (inactive)
GI50 (UO-31): > 100 µM (inactive)
GI50 (HOP-62): > 100 µM (inactive)
GI50 (HCT-15): > 100 µM
GI50 (U-251): > 100 µM (inactive)
GI50 (HOP-92): > 100 µM (inactive)
GI50 (SF-268): > 100 µM (inactive)
GI50 (Malme-3M): > 100 µM (inactive)
GI50 (OVCAR-3): > 100 µM (inactive)
GI50 (SW-620): > 100 µM (inactive)
GI50 (K562): > 100 µM (inactive)
GI50 (HT-29): > 100 µM (inactive)
GI50 (EKVX): > 100 µM (inactive)
GI50 (SK-MEL-2): > 100 µM (inactive)
GI50 (SK-MEL-5): > 100 µM (inactive)
GI50 (A549): > 100 µM (inactive)

COc1cc(CO)cc2c1[nH]c1ccccc12 [KOENOLINE]
GI50 (NCI-H226): 1.73 µM (inactive)
GI50 (UO-31): > 25 µM (inactive)
GI50 (HOP-62): > 25 µM (inactive)
GI50 (HCT-15): > 25 µM
GI50 (U-251): > 25 µM (inactive)
GI50 (HOP-92): > 25 µM (inactive)
GI50 (SF-268): > 25 µM (inactive)
GI50 (Malme-3M): > 25 µM (inactive)
GI50 (OVCAR-3): > 25 µM (inactive)
GI50 (SW-620): > 25 µM (inactive)
GI50 (K562): 11.9 µM (inactive)
GI50 (HT-29): > 25 µM (inactive)
GI50 (SK-MEL-2): > 25 µM (inactive)
GI50 (SK-MEL-5): > 25 µM (inactive)
GI50 (SK-MEL-28): > 25 µM (inactive)
GI50 (A549): > 25 µM (inactive)
